Assays:
Assay type in all cases: cell-based
[1] = test system: HRV16; assay: HRV16 induced CPE in MRC5 cells; settings: Human rhinovirus sp., HRV16, MRC5, at 0.04 μg/mL; read-out: HRV CPE (MRC5) % inhibition
Method: The supernatants were aspirated, and then fresh media added followed by incubation for 4 days. Where appropriate, cells were pre-incubated with compound or DMSO for 2 hr, and the compounds and DMSO added again after washout of the virus.
The percentage inhibition for each well was calculated. The IC50 value was calculated from the concentration-response curve generated by the serial dilutions of the test compounds.

[2] = test system: ICAM-1; assay: Poly I:C-induced ICAM-1 expression in BEAS2B cells; settings: Homo sapiens, BEAS-2B, read-out: PolyIC/ICAM1 IC50 (BEAS2B)
Method: Poly I:C was used in these studies as a simple, RNA virus mimic. Poly I:C-Oligofectamine mixture (1 μg/mL Poly I:C, ±2% Oligofectamine, 25 μL; Invivogen Ltd., San Diego, Calif., and Invitrogen, Carlsbad, Calif., respectively) was transfected into BEAS2B cells (human bronchial epithelial cells, ATCC). Cells were pre-incubated with final concentrations of test compounds for 2 hr and the level of ICAM-1 expression on the cell surface was determined by cell-based ELISA. At a time point 18 hr after poly I:C transfection, cells were fixed with 4% formaldehyde in PBS (100 μL) and then endogenous peroxidase was quenched by the addition of washing buffer (100 μL, 0.05% Tween in PBS: PBS-Tween) containing 0.1% sodium azide and 1% hydrogen peroxide. Cells were washed with wash-buffer (3×200 μL). and after blocking the wells with 5% milk in PBS-Tween (100 μL) for 1 hr, the cells were incubated with anti-human ICAM-1 antibody (50 μL; Cell Signaling Technology, Danvers, Mass.) in 1% BSA PBS overnight at 4° C.
The cells were washed with PBS-Tween (3×200 μL) and incubated with the secondary antibody (100 μL; HRP-conjugated anti-rabbit IgG, Dako Ltd., Glostrup, Denmark). The cells were then incubated with of substrate (50 μL) for 2-20 min, followed by the addition of stop solution (50 μL, 1N H2SO4). The ICAM-1 signal was detected by reading […] the absorbance at 450 nm against a reference wavelength of 655 nm using a spectrophotometer. The cells were then washed with PBS-Tween (3×200 μL) and total cell numbers in each well were determined by reading absorbance at 595 nm after Crystal Violet staining (50 μL of a 2% solution in PBS) and elution by 1% SDS solution (100 μL) in distilled water. The measured OD 450-655 readings were corrected for cell number by dividing with the OD595 reading in each well. The inhibition of ICAM-1 expression was calculated at each concentration of test compound by comparison with vehicle control.

[3] = test system: TNFα; assay: LPS-induced TNFα release in d-U937 cells; settings: Homo sapiens, dU937, dU937 cells; relative to 10 μg/mL BIRB796; read-out: LPS Induced Release TNFα REC50 (dU937)
Method: (§1) U937 cells, a human monocytic cell line, were differentiated into macrophage-type cells by incubation with PMA (100 ng/mL) for 48 to 72 hr. Cells were pre-incubated with final concentrations of test compound for 2 hr and were then stimulated with LPS (0.1 μg/mL; from E. Coli: O111:B4, Sigma) for 4 hr. The supernatant was collected for determination of TNFα and IL-8 concentrations by sandwich ELISA (Duo-set, R&D systems). […] The relative 50% effective concentration (REC50) was determined from the resultant concentration-response curve. The inhibition of IL-8 production was calculated at each concentration of test compound by comparison with vehicle control.

[4] = test system: IL-8; assay: Rhinovirus-induced IL-8 release in BEAS2B cells; settings: Homo sapiens, BEAS-2B, at 0.04 μg/mL; read-out: HRV IL-8 (BEAS2B) % inhibition
Method: Human rhinovirus RV16 was obtained from the American Type Culture Collection (Manassas, Va.). Viral stocks were generated by infecting Hela cells with HRV until 80% of the cells were cytopathic.
BEAS2B cells were infected with HRV at an MOI of 5 and incubated for 2 hr at 33° C. with gentle shaking for to promote absorption. The cells were then washed with PBS, fresh media added and the cells were incubated for a further 72 hr. The supernatant was collected for assay of IL-8 concentrations using a Duoset ELISA development kit (R&D systems, Minneapolis, Minn.). […]

[5] = test system: IL-8; assay: LPS-induced IL-8 release in d-U937 cells; settings: Homo sapiens, dU937, dU937 cells
Method: as §1

[6] = test system: TNFα; assay: LPS-induced TNFα release in THP-1 cells; settings: Homo sapiens, THP-1, THP1 cells
Method: THP-1 cells, a human monocytic cell line, were stimulated with 3 μg/mL of LPS (from E. Coli; 0111:B4, Sigma) for 4 hr and the supernatant collected for determination of the TNFα concentration by sandwich ELISA (Duo-set, R&D systems). The inhibition of TNFα production was calculated at each concentration by comparison with vehicle control.

[7] = test system: PBMC; assay: Cell mitosis assay; settings: Homo sapiens; for inhibition at 5 µg/mL: read-out: Mitosis Assay % inhibition in PBMC Cells at concn 5 μg/mL
Method: Peripheral blood mononucleocytes (PBMCs) from healthy subjects were separated from whole blood (Quintiles, London, UK) using a density gradient (Histopaque®-1077, Sigma-Aldrich, Poole, UK). The PBMCs (3 million cells per sample) were subsequently treated with 2% PHA (Sigma-Aldrich, Poole, UK) for 48 hr, followed by a 20 hr exposure to varying concentrations of test compounds. At 2 hr before collection, PBMCs were treated with demecolcine (0.1 μg/mL; Invitrogen, Paisley, UK,) to arrest cells in metaphase. To observe mitotic cells, PBMCs were permeabilised and fixed by adding Intraprep (50 μL; Beckman Coulter, France), and stained with anti-phospho-histone 3 ([…]; #9701; Cell Signalling, Danvers, Mass.) and propidium iodide (1 mg/mL; Sigma-Aldrich, Poole, UK,) as previously described (Muehlbauer P. A. and Schuler M. J., Mutation Research, 2003, 537:117-130). Fluorescence was observed using an ATTUNE flow cytometer (Invitrogen, Paisley, UK), gating for lymphocytes.

Row | SMILES | inhibition at 0.04 µg/mL [1] | IC50 [2] | EC50 [3] | inhibition at 0.04 µg/mL [4] | IC50 [5] | IC50 [6] | inhibition at 5 µg/mL [7] | inhibition at 1 µg/mL ([7]; read-out: Mitosis Assay % inhibition in PBMC Cells at concn 1 μg/mL)
1 | COc1ccccc1Nc1nccc(Oc2ccc(NC(=O)Nc3cc(C(C)(C)C)nn3-c3ccc(C)cc3)c3ccccc23)n1 [Example 5, 1-(3-(tert-butyl)-1-(p-tolyl)-1H-pyrazol-5-yl)-3-(4-((2-((2-methoxyphenyl)amino)pyrimidin-4-yl)oxy)naphthalen-1-yl)urea] | 91% | 17 nM | 2.9 nM | 49% | 6.2 nM | 66 nM | – | –
2 | COc1ccc(-n2nc(C(C)(C)C)cc2NC(=O)Nc2ccc(Oc3ccnc(Nc4ccccc4)n3)c3ccccc23)cc1 [Example 7, 1-(3-(tert-butyl)-1-(4-methoxyphenyl)-1H-pyrazol-5-yl)-3-(4-((2-(phenylamino)pyrimidin-4-yl)oxy)naphthalen-1-yl)urea] | ≤ 0% | – | 1.7 nM | 100% | 2.1 nM | 10 nM | 10.2% | –
3 | COc1ccc(Nc2nccc(Oc3ccc(NC(=O)Nc4cc(C(C)(C)C)nn4-c4ccc(C)cc4)c4ccccc34)n2)c(OC)c1 [Example 8, 1-(3-(tert-butyl)-1-(p-tolyl)-1H-pyrazol-5-yl)-3-(4-((2-((2,4-dimethoxyphenyl)amino)pyrimidin-4-yl)oxy)naphthalen-1-yl)urea] | 100% | – | 227 nM | 100% | 235 nM | 225 nM | – | 15.6%
4 | Cc1ccc(-n2nc(C(C)(C)C)cc2NC(=O)Nc2ccc(Oc3ccnc(Nc4ccc(O)cc4)n3)c3ccccc23)cc1 [Example 9, 1-(3-(tert-butyl)-1-(p-tolyl)-1H-pyrazol-5-yl)-3-(4-((2-((4-hydroxyphenyl)amino)pyrimidin-4-yl)oxy)naphthalen-1-yl)urea] | 100% | 3 nM | 1.7 nM | 100% | 2.2 nM | 1.3 nM | 50.3% | –
5 | Cc1ccc(-n2nc(C(C)(C)C)cc2NC(=O)Nc2ccc(Oc3ccnc(Nc4ccc(Cl)cc4)n3)c3ccccc23)cc1 [Example 16, 1-(3-(tert-butyl)-1-(p-tolyl)-1H-pyrazol-5-yl)-3-(4-((2-((4-chlorophenyl)amino)pyrimidin-4-yl)oxy)naphthalen-1-yl)urea] | 10% | 36 nM | 1.1 nM | 100% | 0.31 nM | 4.1 nM | – | –
6 | Cc1ccc(-n2nc(C(C)(C)C)cc2NC(=O)Nc2ccc(Oc3ccnc(Nc4ccc(Cl)cc4C)n3)c3ccccc23)cc1 [Example 18, 1-(3-(tert-butyl)-1-(p-tolyl)-1H-pyrazol-5-yl)-3-(4-((2-((4-chloro-2-methylphenyl)amino)pyrimidin-4-yl)oxy)naphthalen-1-yl)urea] | ≤ 0% | 28 nM | 13 nM | 100% | 15 nM | 157 nM | – | –
7 | Cc1ccc(-n2nc(C(C)(C)C)cc2NC(=O)Nc2ccc(Oc3ccnc(Nc4ccc(O)cc4C)n3)c3ccccc23)cc1 [Example 24, 1-(3-(tert-butyl)-1-(p-tolyl)-1H-pyrazol-5-yl)-3-(4-((2-((4-hydroxy-2-methylphenyl)amino)pyrimidin-4-yl)oxy)naphthalen-1-yl)urea] | 41% | 5 nM | 2.3 nM | 100% | 86 nM | 0.8 nM | – | –
8 | Cc1ccc(-n2nc(C(C)(C)C)cc2NC(=O)Nc2ccc(Oc3ccnc(Nc4ccc(C)c(O)c4)n3)c3ccccc23)cc1 [Example 26, 1-(3-(tert-butyl)-1-(p-tolyl)-1H-pyrazol-5-yl)-3-(4-((2-((3-hydroxy-4-methylphenyl)amino)pyrimidin-4-yl)oxy)naphthalen-1-yl)urea] | 69% | 8.4 nM | 4.1 nM | 100% | 6.6 nM | 1.9 nM | – | –
9 | COc1ccc(Nc2nccc(Oc3ccc(NC(=O)Nc4cc(C(C)(C)C)nn4-c4ccc(C)cc4)c4ccccc34)n2)cc1OC [Example 27, 1-(3-(tert-butyl)-1-(p-tolyl)-1H-pyrazol-5-yl)-3-(4-((2-((3,4-dimethoxyphenyl)amino)pyrimidin-4-yl)oxy)naphthalen-1-yl)urea] | 51% | – | 0.54 nM | 100% | 2 nM | 0.5 nM | 11.2% | –
10 | Cc1ccc(-n2nc(C(C)(C)C)cc2NC(=O)Nc2ccc(Oc3ccnc(Nc4ccc(O)c(F)c4)n3)c3ccccc23)cc1 [Example 29, 1-(3-(tert-butyl)-1-(p-tolyl)-1H-pyrazol-5-yl)-3-(4-((2-((3-fluoro-4-hydroxyphenyl)amino)pyrimidin-4-yl)oxy)naphthalen-1-yl)urea] | 13% | 2.8 nM | 11 nM | 100% | 2.3 nM | 1.6 nM | – | –
11 | Cc1ccc(-n2nc(C(C)(C)C)cc2NC(=O)Nc2ccc(Oc3ccnc(Nc4ccc(O)cc4O)n3)c3ccccc23)cc1 [Example 32, 1-(3-(tert-butyl)-1-(p-tolyl)-1H-pyrazol-5-yl)-3-(4-((2-((2,4-dihydroxyphenyl)amino)pyrimidin-4-yl)oxy)naphthalen-1-yl)urea] | 26% | – | 12 nM | 100% | 9.7 nM | 14 nM | 33% | –
12 | COc1ccc(-n2nc(C(C)(C)C)cc2NC(=O)Nc2ccc(Oc3ccnc(Nc4ccc(O)cc4)n3)c3ccccc23)cc1 [Example 33, 1-(3-(tert-butyl)-1-(4-methoxyphenyl)-1H-pyrazol-5-yl)-3-(4-((2-((4-hydroxyphenyl)amino)pyrimidin-4-yl)oxy)naphthalen-1-yl)urea] | 44% | – | 7.4 nM | 100% | 6.3 nM | 0.5 nM | 67.2% | –
